Values joined by “and” are separate entries in the source; they are usually repeats but may differ in a detail not shown here. Equal entries are not always repeated. Toxic doses and inconclusive results are not listed. Rule for the calls: active = survival T/C of 150% or more; inactive = T/C below 125% in these data.
Test system: CD2F1 mice, L1210 leukemia ip, survival T/C
Experiment: NCI In Vivo Anticancer Drug Screen. Data for tumor model L1210 Leukemia (intraperitoneal) in CD2F1 (CDF1) mice
Details: higher = longer survival
In short: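 Each value reflects a quotient of treated over vehicle control outcomes in mice with a transplanted tumor.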

[1] = endpoint: mean survival time, dose: 100.0 mg/kg/injection, schedule: Q04DX003 (ip), vehicle: saline
[2] = endpoint: mean survival time, dose: 200.0 mg/kg/injection, schedule: Q04DX003 (ip), vehicle: saline
[3] = endpoint: mean survival time, dose: 400.0 mg/kg/injection, schedule: Q04DX003 (ip), vehicle: saline
[4] = endpoint: mean survival time, dose: 100.0 mg/kg/injection, schedule: Q01DX009 (ip), vehicle: saline with Tween-80
[5] = endpoint: mean survival time, dose: 100.0 mg/kg/injection, schedule: Q04DX003 (ip), vehicle: saline with Tween-80
[6] = endpoint: mean survival time, dose: 200.0 mg/kg/injection, schedule: Q01DX009 (ip), vehicle: saline with Tween-80
[7] = endpoint: mean survival time, dose: 100.0 mg/kg/injection, schedule: Q01DX001 (ip), vehicle: saline with Tween-80
[8] = endpoint: mean survival time, dose: 100.0 mg/kg/injection, schedule: Q01DX001 (ip), vehicle: saline
[9] = endpoint: mean survival time, dose: 200.0 mg/kg/injection, schedule: Q01DX001 (ip), vehicle: saline
[10] = endpoint: mean survival time, dose: 400.0 mg/kg/injection, schedule: Q01DX001 (ip), vehicle: saline
[11] = endpoint: mean survival time, dose: 400.0 mg/kg/injection, schedule: Q01DX009 (ip), vehicle: saline with Tween-80

Measured: T/C

N/N=C(\N)c1ccc2ccc3cccnc3c2n1
inactive: [1] 89 % of control | [2] 104 % of control | [3] 108 % of control

Clc1ccc2nnnn2n1
inactive: endpoint: mean survival time, dose: 12.5 mg/kg/injection, schedule: Q01DX009 (ip), vehicle: saline with Tween-80 105 % of control | endpoint: mean survival time, dose: 25.0 mg/kg/injection, schedule: Q01DX009 (ip), vehicle: saline with Tween-80 113 % of control and 114 % of control | endpoint: mean survival time, dose: 25.0 mg/kg/injection, schedule: Q04DX003 (ip), vehicle: saline with Tween-80 96 % of control | endpoint: mean survival time, dose: 31.75 mg/kg/injection, schedule: Q04DX003 (ip), vehicle: saline with Tween-80 106 % of control | endpoint: mean survival time, dose: 50.0 mg/kg/injection, schedule: Q01DX009 (ip), vehicle: saline with Tween-80 100 % of control and 110 % of control | endpoint: mean survival time, dose: 50.0 mg/kg/injection, schedule: Q04DX003 (ip), vehicle: saline with Tween-80 100 % of control | endpoint: mean survival time, dose: 62.5 mg/kg/injection, schedule: Q04DX003 (ip), vehicle: saline with Tween-80 103 % of control | [4] 114 % of control and 122 % of control | [5] 107 % of control | endpoint: mean survival time, dose: 125.0 mg/kg/injection, schedule: Q04DX003 (ip), vehicle: saline with Tween-80 103 % of control | [6] 100 % of control | endpoint: mean survival time, dose: 200.0 mg/kg/injection, schedule: Q04DX003 (ip), vehicle: saline with Tween-80 105 % of control | endpoint: mean survival time, dose: 250.0 mg/kg/injection, schedule: Q04DX003 (ip), vehicle: saline with Tween-80 105 % of control | endpoint: mean survival time, dose: 400.0 mg/kg/injection, schedule: Q04DX003 (ip), vehicle: saline with Tween-80 108 % of control | endpoint: median survival time, dose: 25.0 mg/kg/injection, schedule: Q01DX009 (ip), vehicle: saline with Tween-80 102 % of control and 103 % of control | endpoint: median survival time, dose: 25.0 mg/kg/injection, schedule: Q04DX003 (ip), vehicle: saline with Tween-80 114 % of control | endpoint: median survival time, dose: 50.0 mg/kg/injection, schedule: Q01DX009 (ip), vehicle: saline with Tween-80 113 % of control and 108 % of control | endpoint: median survival time, dose: 50.0 mg/kg/injection, schedule: Q04DX003 (ip), vehicle: saline with Tween-80 112 % of control | endpoint: median survival time, dose: 100.0 mg/kg/injection, schedule: Q01DX009 (ip), vehicle: saline with Tween-80 118 % of control | endpoint: median survival time, dose: 100.0 mg/kg/injection, schedule: Q04DX003 (ip), vehicle: saline with Tween-80 113 % of control | endpoint: median survival time, dose: 200.0 mg/kg/injection, schedule: Q01DX009 (ip), vehicle: saline with Tween-80 117 % of control and 108 % of control | endpoint: median survival time, dose: 200.0 mg/kg/injection, schedule: Q04DX003 (ip), vehicle: saline with Tween-80 110 % of control | endpoint: median survival time, dose: 400.0 mg/kg/injection, schedule: Q04DX003 (ip), vehicle: saline with Tween-80 118 % of control

COc1cccc2c1C(=O)c1c(O)c3c(c(O)c1C2=O)C[C@@](O)(C(C)O)C[C@@H]3OC1CC(N)C(O)C(C)O1 (stereo partly specified)
inactive: endpoint: mean survival time, dose: 0.65 mg/kg/injection, schedule: Q01DX009 (ip), vehicle: saline 112 % of control | endpoint: mean survival time, dose: 1.08 mg/kg/injection, schedule: Q01DX009 (ip), vehicle: saline 113 % of control | endpoint: mean survival time, dose: 3.0 mg/kg/injection, schedule: Q04DX003 (ip), vehicle: saline 120 % of control | endpoint: mean survival time, dose: 13.3 mg/kg/injection, schedule: Q01DX009 (ip), vehicle: saline 96 % of control

O=C1NC2C=CC3C=CC=CC2C13 (stereo unspecified)
inactive: endpoint: median survival time, dose: 25.0 mg/kg/injection, schedule: Q04DX002 (ip), vehicle: saline with Tween-80 100 % of control | endpoint: median survival time, dose: 50.0 mg/kg/injection, schedule: Q04DX002 (ip), vehicle: saline with Tween-80 100 % of control | endpoint: median survival time, dose: 100.0 mg/kg/injection, schedule: Q04DX002 (ip), vehicle: saline with Tween-80 100 % of control | endpoint: median survival time, dose: 200.0 mg/kg/injection, schedule: Q04DX002 (ip), vehicle: saline with Tween-80 100 % of control

O=c1[nH]c(NCCCCc2ccccc2)c(Br)c(=O)[nH]1
inactive: [7] 91 % of control

CC(C)(C)OCC(N)C(=O)OC(C)(C)C (stereo unspecified)
inactive: [1] 93 % of control | [2] 103 % of control | [3] 96 % of control

O=S(=O)(SC1=NCCN1)c1ccccc1
inactive: [8] 101 % of control | [9] 97 % of control | [10] 101 % of control

OC1CCc2c(Cl)sc(Cl)c21 (stereo unspecified)
inactive: endpoint: mean survival time, dose: 25.0 mg/kg/injection, schedule: Q01DX001 (ip), vehicle: saline with Tween-80 92 % of control | endpoint: mean survival time, dose: 50.0 mg/kg/injection, schedule: Q01DX001 (ip), vehicle: saline with Tween-80 98 % of control | [7] 98 % of control

O=C1C2C3CCC(C3)C2N1Cc1ccccc1 (stereo unspecified)
inactive: endpoint: mean survival time, dose: 100.0 mg/kg/injection, schedule: Q04DX002 (ip), vehicle: other 93 % of control | endpoint: mean survival time, dose: 200.0 mg/kg/injection, schedule: Q04DX002 (ip), vehicle: other 96 % of control | endpoint: mean survival time, dose: 400.0 mg/kg/injection, schedule: Q04DX002 (ip), vehicle: other 96 % of control

Sc1c(Cl)c(Cl)c(Cl)c(Cl)c1Cl
inactive: endpoint: mean survival time, dose: 100.0 mg/kg/injection, schedule: Q04DX002 (ip), vehicle: Klucel (hydroxypropylcellulose) (HPC) 96 % of control | endpoint: mean survival time, dose: 200.0 mg/kg/injection, schedule: Q04DX002 (ip), vehicle: Klucel (hydroxypropylcellulose) (HPC) 90 % of control | endpoint: mean survival time, dose: 400.0 mg/kg/injection, schedule: Q04DX002 (ip), vehicle: Klucel (hydroxypropylcellulose) (HPC) 90 % of control

NCc1cccnc1
inactive: endpoint: mean survival time, dose: 100.0 mg/kg/injection, schedule: Q04DX002 (ip), vehicle: saline 96 % of control | endpoint: mean survival time, dose: 200.0 mg/kg/injection, schedule: Q04DX002 (ip), vehicle: saline 107 % of control | endpoint: mean survival time, dose: 400.0 mg/kg/injection, schedule: Q04DX002 (ip), vehicle: saline 111 % of control

COC1OC2COC(c3ccccc3)OC2C(O)C1O (stereo unspecified)
inactive: endpoint: mean survival time, dose: 100.0 mg/kg/injection, schedule: Q04DX003 (ip), vehicle: Klucel (hydroxypropylcellulose) (HPC) 105 % of control | endpoint: mean survival time, dose: 200.0 mg/kg/injection, schedule: Q04DX003 (ip), vehicle: Klucel (hydroxypropylcellulose) (HPC) 95 % of control | endpoint: mean survival time, dose: 400.0 mg/kg/injection, schedule: Q04DX003 (ip), vehicle: Klucel (hydroxypropylcellulose) (HPC) 95 % of control

O=C1CC[C@H](NC(=O)OCc2ccccc2)C(=O)O1
inactive: [4] 88 % of control | [6] 90 % of control | [11] 88 % of control

CCCCCCCCCCCCCCCCC/C=C1\CC(=O)OC1=O
inactive: [5] 88 % of control

Cc1cc(C)c(C(=O)c2no[n+]([O-])c2C(=O)c2c(C)cc(C)c(Br)c2C)c(C)c1Br
inactive: [4] 97 % of control | [6] 97 % of control | [11] 98 % of control

O=C1OCc2ccc3ccccc3c21
inactive: endpoint: mean survival time, dose: 50.0 mg/kg/injection, schedule: Q01DX001 (ip), vehicle: saline 97 % of control | [8] 89 % of control | [9] 93 % of control | [10] 93 % of control

C1CN2CN3CCN(CN1C3)C2
inactive: endpoint: mean survival time, dose: 12.5 mg/kg/injection, schedule: Q01DX009 (ip), vehicle: saline 97 % of control | endpoint: mean survival time, dose: 25.0 mg/kg/injection, schedule: Q01DX009 (ip), vehicle: saline 109 % of control | endpoint: mean survival time, dose: 50.0 mg/kg/injection, schedule: Q01DX009 (ip), vehicle: saline 105 % of control | endpoint: mean survival time, dose: 100.0 mg/kg/injection, schedule: Q01DX009 (ip), vehicle: saline 118 % of control

COC1OC(COC(C)=O)C(n2cnc3c2c(=O)n(C)c(=O)n3C)C=C1NC(C)=O (stereo unspecified)
inactive: endpoint: mean survival time, dose: 12.5 mg/kg/injection, schedule: Q01DX005 (ip), vehicle: distilled water + Tween-80 94 % of control | endpoint: mean survival time, dose: 25.0 mg/kg/injection, schedule: Q01DX005 (ip), vehicle: distilled water + Tween-80 96 % of control | endpoint: mean survival time, dose: 50.0 mg/kg/injection, schedule: Q01DX005 (ip), vehicle: distilled water + Tween-80 90 % of control | endpoint: mean survival time, dose: 100.0 mg/kg/injection, schedule: Q01DX005 (ip), vehicle: distilled water + Tween-80 94 % of control | endpoint: mean survival time, dose: 200.0 mg/kg/injection, schedule: Q01DX005 (ip), vehicle: distilled water + Tween-80 108 % of control

— PubChem BioAssay AID256 (DTP/NCI, 2004)
